Test results as given in ChEMBL document CHEMBL1125517, “Synthesis and antifolate evaluation of 10-ethyl-5-methyl-5,10- dideazaaminopterin and an alternative synthesis of 10-ethyl-10- deazaaminopterin (edatrexate)” (J Med Chem, 1992).

Columns and labels:
L1210 [1] = assay: In vitro inhibition of L1210 cell growth; format: functional, cell-based; settings: Mus musculus
L1210 [2] = assay: Compound was evaluated for influx of L1210 cells; format: functional, cell-based; settings: Mus musculus

| Compound | IC50 (L1210 [1]) [µM] | Km (L1210 [2]) [µM] |
| --- | --- | --- |
| CCC(Cc1cnc2nc(N)nc(N)c2n1)c1ccc(C(=O)NC(CCC(=O)O)C(=O)O)cc1 (centres undefined) | 0.065 | 1.08 |
| CN(Cc1cnc2nc(N)nc(N)c2n1)c1ccc(C(=O)N[C@@H](CCC(=O)O)C(=O)O)cc1 [METHOTREXATE] | 0.0034 | 3.51 |
